According to patent US6943191B1, “Disubstituted lavendustin A analogs and pharmaceutical composition comprising the analogs” (The United States of America as represented by the …, priority 1998, dated 2005):
Where two headings read alike, the source gives them in different places.

Key:
[1] = system: panel of approximately 60 different human tumor cell lines; assay: National Cancer Institute drug screen, mean-graph parameters; type: cell-based; conditions: mean over cell line panel, two days exposure; for GI50: Homo sapiens, 48 h
Protocol: Compounds of the present invention also have been subjected to the drug screening procedure employed by the National Cancer Institute for the screening of drugs having possible anticancer utility. The screening procedure uses a diverse, disease-oriented panel consisting of approximately 60 different human tumor cell lines organized into disease-specific subpanels. The compounds of the present invention were tested over a range of concentrations for cytotoxic or growth-inhibitory effects against cell lines comprising the panel. The eight subpanels represented diverse histologies (leukemias, melanomas, and tumors of the lung, colon, kidney, breast, ovary, and brain).
Compounds of the present invention were tested over a period of two days. During this period the cells were continuously exposed to various concentrations of the compounds tested. The tests produced individual dose-responses, one for each cell line (i.e. one for each example), and the data were represented in dose-response curves. The data provided by these dose response curves were summarized using a mean-graph format.
To produce data for the mean-graph format, a compound concentration that produced a target level response was calculated for each cell line. Three different response parameters were evaluated. The first response parameter was the growth inhibition (“GI50”). GI50 is the concentration of compounds made according to the present invention that produced an apparent 50% decrease in the number of tumor cells relative to the appropriate control (not exposed to the compounds of the present invention) at the end of the incubation period.
The second response parameter was the total growth inhibition (“TGI”). TGI is the concentration at which the number of tumor cells remaining at the end of the incubation period substantially equal the number of tumor cells existing at the start of the incubation period.
The third response parameter was the lethal concentration (“LC50”) LC50 is the concentration of compounds made according to the present invention that caused an apparent 50 percent reduction in the number of tumor cells […] at the start of the incubation period.
In a typical GI50 mean graph, the relative position of the vertical reference line along the horizontal concentration axis was obtained by averaging the negative log10GI50 values for all the cell lines tested against the compound. Horizontal bars were then plotted for the individual negative log10GI50 values of each cell line relative to the vertical reference line. The GI50 graph thus provided a characteristic fingerprint for the compound, displaying the individual cell lines that are proportionately more sensitive than average (bars extending to the right of the reference line) or proportionately less sensitive than average (bars extending to the left of the reference line). The length of a bar was proportional to the difference between the log10GI50 value obtained with the particular cell line and the mean (represented by the vertical reference line).
Similar mean graphs were prepared for the TGI and LC50 response parameters.

[2] = system: K562 cells; assay: K562 cell culture and growth assay, 6 day MTT; type: cell-based, human; conditions: K562, 6 days, 4 or more experiments
Protocol: This example describes the procedure used for cell culture and growth assays. Human leukemia, Philadelphia-chromosome-positive CML cell line K562 was obtained from ATCC (Rockville, Md.). Cells were cultured in RPMI medium containing 10% fetal calf serum, 2 mM glutamine, 100 units/ml of penicillin and 100 μg/ml streptomycin Cells (2×10^3 cells/well) were incubated with increasing concentrations of compounds of the present invention dissolved in DMSO in a final volume of 200 μl in 96-well plates. Control cells were incubated with medium containing identical concentrations of the DMSO solvent. Growth of K562 cells was quantitated after 6 days by ability of living cells to reduce the yellow dye 3-(4,5-dimethylthiazolyl)-2,5-diphenyltetrazolium bromide (MTT) to a blue formazan product. Further information concerning this procedure is provided by Mossman T., “Rapid Colorimetric Assay for Cellular Growth and Survival—Application to Proliferation and Cytotoxicity Assays,” J. Immunol. Methods 1983, 65:55-63, which is incorporated herein by reference.

[3] = molecular target: T1, p210^bcr-abl (Homo sapiens, UniProt P00519); assay: Inhibition of in vitro auto-phosphorylation of p210^bcr-abl, immune-complex kinase assay; type: biochemical; conditions: immune complex kinase assay, 3 experiments, read-out: Enzyme Assays IC50 (μM) p210bcl-abl in vitro phosphorylation
T1 construct: immune complexes containing ^32P-labeled p210^bcr-abl were collected on protein Sepharose beads; BCR (N-terminal part of the breakpoint cluster region protein, natural fusion partner); endogenous in cells; host or cells: K562 cells (lysate, immunoprecipitated on Protein A-Sepharose); the other entry of the earlier key: BCR (P11274, Breakpoint cluster region protein)
Protocol: Inhibition of in vitro auto-phosphorylation of p210^bcr-abl in immune-complex kinase assays were conducted as follows. K562 cell line cells were washed twice in […]. The washed cells were lysed in PLC lysis buffer 150 mM HEPES (pH 7.5), 150 mM NaCl, 10% (v/v) glycerol, 1% (v/v) Triton X-100, 1.5 mM MgCl2, 1 mM EGTA. 10 μg/ml leupeptin, 10 μg/ml aprotinin, 1 mM sodium orthovanadate. 10 mM sodium pyrophosphate, 100 mM sodium fluoride and 1 mM phenylmethyl sulfonyl fluoride| Cell lysates were centrifuged at 100,000 g for 15 minutes and the supernatant collected. Protein concentrations of the clarified supernatants were determined by the Bradford Protein Assay, and the same quantity of protein was immunoprecipitated from control (vehicle-treated) and drug-treated cells. Cell lysates were incubated and gently rocked at 4° C. for 4 hours overnight with antibodies. Immune complexes were collected by incubation with Protein A-Sepharose beads (Pharmacia, Piscataway N.J.) and immune complexes (beads) were washed three times with HNTG buffer [20 mM HEPES (pH 7.5), 10% glycerol, 0.1% Triton X-100, 150 mM NaCl and 1 mM sodium orthovanadate] to remove unbound material. Bound proteins were boiled for 5 minutes in 2×SDS sample buffer (63 mM Tris-HCl, ph 6.8; 10% glycerol; 2% SDS; 0.0025% bromophenol blue: and […] 2 mercaptoethanol) prior to SDS-PAGE. Proteins were resolved on 4-20% gradient mini gels from Novex Experimental Technology (San Diego, Calif.).
After SDS-PAGE, proteins were electrophoretically transferred onto Immobilon polyvinylidene difluoride (PVDF) membranes (Millipore, Bedford, Mass.) at 250 mA for 4 hours at 4° C. using 2× Tris glycine transfer buffer (50 mM Tris, glycine), 20% methanol and 0.1% SDS. Residual binding sites on the membrane were blocked by incubation in TTS (20 mM Tris pH 7.4, 0.9% NaCl and 0.05% Tween 20) containing 3% BSA overnight at 4° C. or for 4 hours at room temperature. Blots were incubated for 1-1.5 hours with TTS containing 0.3% BSA with 1 μg/ml of mouse anti-P-Tyr, 2 μg/ml of mouse anti-Grb2 or 1 μg/ml of rabbit anti-She antibody. Blots were washed three times for 6 minutes each with TTS containing 0.3% BSA and probed with a 1:1000 dilution of rabbit anti-mouse antibody or directly with [^125I]Protein A (Amersham, Arlington Heights, Ill.) in blocking solutions. Proteins were visualized by autoradiography (exposed for 1-2 days at −70° C.).
The p210^bcr-abl, protein immunoprecipitates were washed twice with HTNG buffer Immunoprecipitates were washed once with 50 mM Tris (pH 7.0) and distributed to each reaction in 20 μl of 20 mM PIPES [piperazine-N,N′-bis(ethanesulfonic acid)] (pH 7.0)−20 mM MnCl2. Then, 10 μl of compounds made according to the present invention at desired concentrations from working stock solution prepared in 20 mM PIPEs (pH 7.0)−20 mM MnCl2 were added to each reaction tube. Reactions were initiated with the addition of 10 μl of [γ-^33P]ATP (10 μCi per sample, 3000 Ci/mmol; Amersham), incubated for 20 minutes at 30° C., stopped by addition of 10 μl of 5×SDS sample buffer, heated at 100° C. for 5 minutes, and analyzed on 4-20% SDS-PAGE and by autoradiography.
To assess the effect of drugs added in vitro on the state of p210^bcr-abl in the immune complexes, K562 cells were labeled with ^32P, lysed in PLC buffer and immune complexes containing ^32P-labeled p210^bcr-abl were collected on protein Sepharose beads and beads were washed four times with HNTG buffer. Immune complexes were divided into several tubes in 30 μl of PLC buffer in the presence of compounds made as described herein.

[4] = Table 10, read-out: Tumor Cell Mean log GI50 (converted)
[5] = Homo sapiens, 144 h, Table 10, mean ± S.E., read-out: IC50 (μM) 6dMTT
[6] = Table 9, mean ± S.E., read-out: IC50 (μM) 6dMTT
[7] = Homo sapiens, 144 h, Table 8, mean+S.E., read-out: IC50 (μM) 6 dMTT

T1 sequence (P00519 with tags, fused parts or gaps): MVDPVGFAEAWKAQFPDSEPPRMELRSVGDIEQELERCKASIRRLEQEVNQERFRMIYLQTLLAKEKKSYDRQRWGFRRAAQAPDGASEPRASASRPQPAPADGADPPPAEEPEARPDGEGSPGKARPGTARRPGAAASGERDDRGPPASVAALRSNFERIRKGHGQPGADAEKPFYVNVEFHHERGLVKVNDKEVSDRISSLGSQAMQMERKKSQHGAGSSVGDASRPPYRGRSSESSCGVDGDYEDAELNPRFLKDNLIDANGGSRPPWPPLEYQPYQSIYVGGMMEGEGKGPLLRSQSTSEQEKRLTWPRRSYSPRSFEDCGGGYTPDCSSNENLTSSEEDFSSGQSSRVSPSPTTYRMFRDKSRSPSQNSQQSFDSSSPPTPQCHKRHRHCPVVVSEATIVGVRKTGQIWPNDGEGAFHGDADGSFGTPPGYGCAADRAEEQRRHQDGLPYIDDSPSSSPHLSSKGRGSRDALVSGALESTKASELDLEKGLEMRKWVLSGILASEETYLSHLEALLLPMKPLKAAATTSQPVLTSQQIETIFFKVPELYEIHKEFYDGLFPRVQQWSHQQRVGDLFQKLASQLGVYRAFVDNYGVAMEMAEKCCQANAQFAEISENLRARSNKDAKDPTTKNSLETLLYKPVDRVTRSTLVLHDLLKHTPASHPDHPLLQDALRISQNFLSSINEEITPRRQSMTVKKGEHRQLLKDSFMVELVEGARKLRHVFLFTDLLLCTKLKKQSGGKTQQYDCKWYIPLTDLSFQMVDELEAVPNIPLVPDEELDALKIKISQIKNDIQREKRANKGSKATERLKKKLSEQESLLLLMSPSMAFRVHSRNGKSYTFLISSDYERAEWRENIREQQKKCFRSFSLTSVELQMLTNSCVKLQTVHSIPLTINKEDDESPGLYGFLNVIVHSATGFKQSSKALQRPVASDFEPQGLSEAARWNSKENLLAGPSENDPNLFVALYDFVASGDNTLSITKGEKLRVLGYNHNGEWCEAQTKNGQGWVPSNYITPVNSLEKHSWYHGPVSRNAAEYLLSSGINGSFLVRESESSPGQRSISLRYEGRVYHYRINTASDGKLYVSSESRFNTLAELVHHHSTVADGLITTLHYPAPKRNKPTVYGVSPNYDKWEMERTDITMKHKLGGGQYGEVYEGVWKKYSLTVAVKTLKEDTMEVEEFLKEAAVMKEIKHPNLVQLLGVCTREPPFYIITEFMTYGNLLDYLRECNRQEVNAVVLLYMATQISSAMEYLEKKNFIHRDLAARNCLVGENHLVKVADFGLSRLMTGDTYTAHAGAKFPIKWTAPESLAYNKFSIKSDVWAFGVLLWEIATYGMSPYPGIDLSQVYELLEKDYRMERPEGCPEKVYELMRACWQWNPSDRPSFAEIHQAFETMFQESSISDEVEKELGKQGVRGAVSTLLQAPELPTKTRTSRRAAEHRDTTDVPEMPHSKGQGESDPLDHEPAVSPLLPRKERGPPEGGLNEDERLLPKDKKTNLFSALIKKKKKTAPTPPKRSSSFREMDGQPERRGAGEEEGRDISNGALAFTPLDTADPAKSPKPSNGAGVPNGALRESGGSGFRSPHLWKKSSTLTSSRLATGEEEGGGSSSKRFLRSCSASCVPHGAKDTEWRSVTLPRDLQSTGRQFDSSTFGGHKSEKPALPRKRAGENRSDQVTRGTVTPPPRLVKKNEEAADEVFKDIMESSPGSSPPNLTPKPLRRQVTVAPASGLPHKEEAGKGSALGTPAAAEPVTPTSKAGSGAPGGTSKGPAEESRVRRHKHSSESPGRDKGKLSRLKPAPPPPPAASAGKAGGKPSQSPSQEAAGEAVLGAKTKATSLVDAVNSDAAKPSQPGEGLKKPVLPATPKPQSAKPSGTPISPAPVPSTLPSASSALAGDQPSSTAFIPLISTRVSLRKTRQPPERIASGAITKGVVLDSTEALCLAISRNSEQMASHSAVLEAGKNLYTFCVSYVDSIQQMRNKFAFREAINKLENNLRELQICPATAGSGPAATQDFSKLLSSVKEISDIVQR

Structure (SMILES)	Tumor Cell Mean log TGI ([1]; Table 10)	IC50 ([3]; Table 10, mean ± S.E.) [µM]	Tumor Cell Mean log TGI ([1]; Table 9)	IC50 ([3]; Table 9, mean ± S.E.) [µM]	Tumor Cell Mean log GI50 ([1]; Table 8)	Tumor Cell Mean log TGI ([1]; Table 8)	IC50 [2, 7] [µM]	IC50 ([3]; Table 8, mean+S.E.) [µM]	further results
COC(=O)c1ccc(CCc2cc(O)ccc2O)cc1	−4.43	2.64 ± 0.99							GI50 [1, 4]: 10 µM; IC50 [2, 5]: 18.5 ± 5.62 µM
CC(C)OC(=O)c1ccc(CCc2cc(O)c(Br)cc2O)cc1	−4.50	5.77 ± 0.53							GI50 [1, 4]: 7.59 µM; IC50 [2, 5]: 20 ± 0.7 µM
O=C(O)c1ccc(CCc2cc(O)ccc2O)cc1O	−4.01	13 ± 1.03							Tumor Cell Mean log GI50 ([1]; Table 10): −4.06; IC50 ([2]; Table 10, mean ± S.E., read-out: IC50 (μM) 6dMTT): 33.4 ± 4.8 µM
COC(=O)c1cc(NCc2cc(O)cc(Br)c2O)ccc1Cl [4′-chloro-5′-methylbenzoate-1′-N-3-bromo-2,5-dihydroxybenzylamine]			−4.43	3.56 ± 0.53					Tumor Cell Mean log GI50 ([1]; Table 9): −4.86; IC50 [2, 6]: 8.9 ± 0.5 µM
Oc1ccc(O)c(CNc2ccc(C(O)C(F)(F)F)cc2)c1 (stereo not drawn) [CH(OH)CF3 / H / H, 4′-(trifluoromethylethanol)-1′-N-2,5-dihydroxybenzylamine]					−4.82	−4.34	14.3	0.57	
NC(=O)c1ccc(NCC2=CC(=O)C=CC2=O)cc1 [CONH2 / H / 2,5-quinoyl]			−4.31	5.1 ± 0.3					Tumor Cell Mean log GI50 ([1]; Table 9): −4.59; IC50 [2, 6]: 21.7 ± 2.27 µM
NC(=O)c1ccc(NCc2cc(O)ccc2O)cc1 [CONH2 / H / H]					−4.53	−4.26	20.9	4.23	
CC(C)N(C(=O)c1ccc(NCc2cc(O)ccc2O)cc1)C(C)C [CON[CH(CH3)2]2 / H / H, 4′-diisopropylbenzamide-N-2,5-dihydroxybenzylamine]					−4.88	−4.36	18.2	2.36	
CC(C)(C)OC(=O)c1ccc(NCC2=CC(=O)C=CC2=O)cc1 [COOC(CH3)3 / H / 2,5-quinoyl]			−4.67	25.9 ± 9.02					GI50 ([1]; Table 9, read-out: Tumor cell Mean log GI50 (converted)): 8.13 µM; IC50 ([2]; Homo sapiens, 144 h, Table 9, mean ± S.E., read-out: IC50 (μM) 6dMTT): 25.4 ± 1.88 µM
